Source: US20230226096A1 (Orna Therapeutics, Inc., priority 2020, published 2023)
“Also recorded” adds a separate entry of the source.

Columns and labels:
[1] = LNP particle size (Z-average) and polydispersity index by dynamic light scattering; format: physicochemical; conditions: Table 36b, LNPs with circular RNA
Procedure: The microfluidic chamber is cleaned with ethanol and neMYSIS syringe pumps are prepared by loading a syringe with the RNA solution and another syringe with the ethanolic lipid. Both syringes are loaded and under the control of neMESYS software. The solutions are then applied to the mixing chip at an aqueous to organic phase ratio of 2 and a total flow rate of 22 ml/min (14.67 ml/min for RNA and 7.33 ml/min for the lipid solution. Both pumps are started synchronously. The mixer solution that flowed from the microfluidic chip is collected in 4×1 ml fractions with the first fraction being discarded as waste. The remaining solution containing the circRNA-transfer vehicles is exchanged by using G-25 mini desalting columns to 10 mM Tris-HCl, 1 mM EDTA, at pH 7.5, as described above. Following buffer exchange, the materials are characterized for size, and RNA entrapment through DLS analysis and Ribogreen assays, respectively.
(§1) Lipid Nanoparticles (LNPs) were formed using a Precision Nanosystems Ignite instrument with a ‘NextGen’ mixing chamber. […] A 3:1 aqueous to ethanol mixing ratio was used. The formulated LNP then were dialyzed in 1 L of water and exchanged 2 times over 18 hours. Dialyzed LNPs were filtered using 0.2 μm filter. Prior to in vivo dosing, LNPs were diluted in PBS. LNP sizes were determined by dynamic light scattering. A cuvette with 1 mL of 20 μg/mL LNPs in PBS (pH 7.4) was measured for Z-average using the Malvern Panalytical Zetasizer Pro. The Z-average and polydispersity index were recorded.
as §1, with “formulated LNPs were” for “formulated LNP”, “then” for “then were”
as §1, with “formulated LNPs were” for “formulated LNP”, “then” for “then were”, “of 1×PBS” for “of water”

[2] = RNA encapsulation / entrapment by Ribogreen assay; format: physicochemical; conditions: Table 36b, LNPs with circular RNA
Procedure: A QUANT-IT™ RIBOGREEN® RNA assay (Invitrogen Corporation Carlsbad, Calif.) can be used to evaluate the encapsulation of circRNA by the nanoparticle composition. The samples are diluted to a concentration of approximately 5 μg/mL or 1 μg/mL in a TE buffer solution (10 mM Tris-HCl, 1 mM EDTA, pH 7.5). 50 μL of the diluted samples are transferred to a polystyrene 96 well plate and either 50 μL of TE buffer or 50 μL of a 2-4% Triton X-100 solution is added to the wells. The plate is incubated at a temperature of 37° C. for 15 minutes. The RIBOGREEN® reagent is diluted 1:100 or 1:200 in TE buffer, and 100 μL of this solution is added to each well. The fluorescence intensity can be measured using a fluorescence plate reader (Wallac Victor 1420 Multilabel Counter; Perkin Elmer, Waltham, Mass.) at an excitation wavelength of, for example, about 480 nm and an emission wavelength of, for example, about 520 nm. The fluorescence values of the reagent blank are subtracted from that of each of the samples and the percentage of free circRNA is determined by dividing the fluorescence intensity of the intact sample (without addition of Triton X-100) by the fluorescence value of the disrupted sample (caused by the addition of Triton X-100). C.
For transfer vehicle compositions including RNA, a QUANT-IT™ RIBOGREEN® RNA assay (Invitrogen Corporation Carlsbad, Calif.) can be used to evaluate the encapsulation of RNA by the transfer vehicle composition. […] The fluorescence intensity can be measured using a fluorescence plate reader (Wallac Victor 1420 Multilabel Counter; Perkin Elmer, Waltham, Mass.) at an excitation wavelength of, for example, about 480 nm and an emission wavelength of, for example, about 520 nm. The fluorescence values of the reagent blank are subtracted from that of each of the samples and the percentage of free RNA is determined by dividing the fluorescence intensity of the intact sample (without addition of Triton X-100) by the fluorescence value of the disrupted sample (caused by the addition of Triton X-100). […]

1C1C7 cells = test: Modified IRES, stop codon cassettes, 5′ UTR variants: GLuc luminescence in 1C1C7 cells; format: cell-based; conditions: 24 and 48 hours after transfection
Source text: This example describes modifications of CK-739, AP-748, and PV-743 IRES sequences, including mutations alternative translation initiation sites.
This example describes modifications of circular RNAs by introducing stop codon or cassette variants. […] 1C1C7 cells were transfected with the circular RNAs.
This example describes modifications of circular RNAs by inserting 5′ UTR variants. […] 1C1C7 cells were transfected with the circular RNAs.

splenic immune cells = test: Cre circular RNA LNPs in Cre reporter (Ai9) mice: tdTomato+ splenic immune cells; format: in vivo; conditions: 0.5 mg/kg RNA intravenously, 48 hr, 0.5 mg/kg
Procedure: Circular RNAs encoding Cre recombinase (Cre) are encapsulated into lipid nanoparticles as previously described. Female, 6-8 week old B6.Cg-Gt(ROSA)26Sortm9(CAG-tdTomato)Hze/J (Ai9) mice were dosed with lipid nanoparticles at 0.5 mg/kg RNA intravenously. Fluorescent tdTomato protein was transcribed and translated in Ai9 mice upon Cre recombination, meaning circular RNAs have been delivered to and translated in tdTomato+ cells. After 48 hr, mice were euthanized and the spleens were harvested, processed into a single cell suspension, and stained with various fluorophore-conjugated antibodies for immunophenotyping via flow cytometry.
Ai9 mice (B6.Cg-Gt(ROSA)26Sortm9(CAG-tdTomato)Hze/J, female, 6-8 weeks, n=3 per group) were injected i.v. with 0.5 mg/kg Cre oRNA LNPs or PBS. Ai9 mice transcribe and translate the fluorescent reporter tdTomato upon Cre recombination; meaning cells which are tdTomato+ have successfully been transfected with Cre oRNA.

HEK293 cells = format: cell-based, human; conditions: luminescence from secreted Gluc in supernatant 24 hours after transfection of HEK293 cells; circular RNA encoding Gluc with the named IRES (UTR truncated to 675 nt)

Molecule | PDI [1] | Z-Average(nm) [1] [nm] | RNA Entrapment(%) [2] [%] | further results
CCCCCCCCC(CCCCCC)C(=O)OCCCCCCN(CCCCCCOC(=O)C(CCCCCC)CCCCCCCC)CCCn1ccnc1 (centres unmarked) [Lipid 26, Table 10a] | 0.04 | 84 | 96 | 
UTR2: 5′ UTR variant: canonical Kozak sequence with "a 36-nucleotide unstructured/low GC spacer sequence" added (DNA AATAAGAGAGAAAAGAAGAGTAAGAAGAAATATAAGAGCCACC; expressed or natural sequence) |  |  |  | translation / expression (luminescence in supernatant) (1C1C7 cells): more effective
CCCCCCCCC(CCCCCC)C(=O)OCCCCCCN(CCCCCCOC(=O)C(CCCCCC)CCCCCCCC)CCCn1ccnc1 (centres unmarked) [Lipid 26 from Table 10a] |  |  |  | proportion of splenic immune cells expressing tdTomato (transfection) (splenic immune cells): significantly higher myeloid and T cell transfection compared with Lipid 93-S14; also recorded: effective at delivering circular RNAs to many splenic immune cell subsets in mice
CCCCCCCCCCCCCCSCCOC(=O)CCN(CCCn1ccnc1)CCC(=O)OCCSCCCCCCCCCCCCCC [93-S14, bis(2-(tetradecylthio)ethyl) 3,3′-((3-(1H-imidazol-1-yl)propyl)azanediyl)dipropionate] | 0.04 | 74 | 95 | 
CCCCCCCCCCCCCCSCCOC(=O)CCN(CCCn1ccnc1C)CCC(=O)OCCSCCCCCCCCCCCCCC [22-S14, bis(2-(tetradecylthio)ethyl) 3,3′-((3-(2-methyl-1H-imidazol-1-yl)propyl)azanediyl)dipropionate] | 0.05 | 64 | 97 | 
UTR3: 5′ UTR variant: "a higher-GC/structured spacer with a kozak sequence" (DNA CGAACTAGTATTCTTCTGGTCCCCACAGACTCAGAGAGAACCCGCCACC; expressed or natural sequence) |  |  |  | translation / expression (luminescence in supernatant) (1C1C7 cells): did not show the same benefit
PSIV IGR (nucleic acid, Plautia stali intestine virus) DNA: GCTGACTATGTGATCTTATTAAAATTAGGTTAAATTTCGAGGTTAAAAATAGTTTTAATATTGCTATAGTCTTAGAGGTCTTGTATATTTATACTTACCACACAAGATGGACCGGAGCAGCCCTCCAATATCTAGTGTACCCTCG |  |  |  | Expression (HEK293 cells): 1.01E+05
EV A114 (nucleic acid, listed as Enterovirus sp.) DNA: TGTGCGCCTGTTTTGAAACCCCCTCCCCCAACTCGAAACGTAGAAGTAATGTACACTACTGATCAGTAGCAGGCGTGGCGCACCAGCCATGTCTCGATCAAGCACTTCTGTTTCCCCGGACTGAGTATCAATAGACTGCTCACGCGGTTGAAGGTGAAAACGTCCGTTACCCGGCTAACTACTTCGAGAAACCTAGTAGCACCATAGAAACTGCAGAGTGTTTCGCTCAGCACTTCCCCCGTGTAGATCAGGTCGATGAGTCACTGCAATCCCCACGGGTGACCGTGGCAGTGGCTGCGTTGGCGGCCTGCCTATGGGGCAACCCATAGGACGCTCTAAGGTGGACATGGTGTGAAGAGTCTATTGAGCTAGTTAGTAGTCCTCCGGCCCCTGAATGCGGCTAATCCTAACTGTGGAGCGCATACTCCCAAACCAGGGAGCAGTGCGTCGTAACGGGCAACTCCGCAGCGGAACCGACTACTTTGGGTGTCCGTGTTTCCTTTTATTCCTATACTGGCTGCTTATGGTGACAATTGAGAGATTGTTACCATATAGCTATTGGATTGGCCATCCAGTGTGTAATAGAGCAATCATTTACCAATTTGTTGGATTTACTCCATTAACCCACACGTCTCTCAACACACTACATTTCATCTTACTACTGAACACTAGAAA |  |  |  | Expression (HEK293 cells): 1.50E+08
